{
  "source": "patent US20080139483A1",
  "about": "“DRUG COMBINATION FOR HYPERTENSIVE DISORDERS” (priority 2006, published 2008)",
  "origin": "cited, not measured here",
  "key": {"patients with PAH": {"tested_on": "patients with PAH", "conditions": "does not appear to be dose related"}},
  "data": [
    {"smiles": "COC(c1ccccc1)(c1ccccc1)[C@H](Oc1nc(C)cc(C)n1)C(=O)O", "note": "[ambrisentan]", "values": [
      {"measurement": "potential liver toxicity", "setting": "patients with PAH", "result": "low incidence and severity of potential liver toxicity"},
      {"measurement": "drug interactions (p450 induction or inhibition)", "setting": "p450", "result": "no p450 induction or inhibition"}
    ]}
  ]
}
